In brackets after ≈: the same amount, converted by molar mass. Like-named read-outs stand apart in the source and are kept apart here.
Legend:
[1] = molecular target: hNaV1.5 (Homo sapiens, UniProt Q14524); assay: Off-target ion channel profiling (automated patch clamp); format: cell-based; conditions: concentrations up to 30 μM
Description: (§1) The effect of GE81112A on the hERG and other ion channels (hNaV1.5, hNaV1.2, hCaV3.1, or hKV4.3) was investigated using an automated patch-clamp method, as described by Houtmann et al. ([17]). GE81112A was diluted in a 5-fold 1:3 dilution series with a final concentration range of 30 to 0.12 μM in extracellular medium (150 mM NaCl, 4 mM KCl, 2 mM CaCl2, 1 mM MgCl2, 10 mM HEPES, 10 mM glucose, 0.06% Pluronic F-68, 0.3% residual DMSO). The hERG channel was constitutively expressed in Chinese hamster ovary (CHO) cells (CHO hERG Duo; B’SYS GmbH, Witterswil, Switzerland). CHO cells were grown at a concentration of 8 × 10^6 CHO cells/mL in QPlates (Sophion/Biolin Scientific, Ballerup, Denmark) in Ex-Cell animal component-free CHO medium (Sigma-Aldrich) supplemented with 25 mM HEPES, 100 U/mL penicillin-streptomycin, and 0.004% soybean trypsin inhibitor. To each well, we added extracellular medium containing the desired concentration of GE81112A. The peptide-hERG interaction was quantified by recording the tail current following repolarization of the hERG channels using a QPatch HTX station (Sophion/Biolin Scientific). The IC50 values were determined using the values from three replicates of the GE81112A concentration series with respect to the terfenadine citrate positive control and extracellular medium (blank).

[2] = molecular target: hCaV3.1 (Homo sapiens, UniProt O43497); assay: as above; format: cell-based; conditions: concentrations up to 30 μM
Chain of hCaV3.1 (O43497 whole entry): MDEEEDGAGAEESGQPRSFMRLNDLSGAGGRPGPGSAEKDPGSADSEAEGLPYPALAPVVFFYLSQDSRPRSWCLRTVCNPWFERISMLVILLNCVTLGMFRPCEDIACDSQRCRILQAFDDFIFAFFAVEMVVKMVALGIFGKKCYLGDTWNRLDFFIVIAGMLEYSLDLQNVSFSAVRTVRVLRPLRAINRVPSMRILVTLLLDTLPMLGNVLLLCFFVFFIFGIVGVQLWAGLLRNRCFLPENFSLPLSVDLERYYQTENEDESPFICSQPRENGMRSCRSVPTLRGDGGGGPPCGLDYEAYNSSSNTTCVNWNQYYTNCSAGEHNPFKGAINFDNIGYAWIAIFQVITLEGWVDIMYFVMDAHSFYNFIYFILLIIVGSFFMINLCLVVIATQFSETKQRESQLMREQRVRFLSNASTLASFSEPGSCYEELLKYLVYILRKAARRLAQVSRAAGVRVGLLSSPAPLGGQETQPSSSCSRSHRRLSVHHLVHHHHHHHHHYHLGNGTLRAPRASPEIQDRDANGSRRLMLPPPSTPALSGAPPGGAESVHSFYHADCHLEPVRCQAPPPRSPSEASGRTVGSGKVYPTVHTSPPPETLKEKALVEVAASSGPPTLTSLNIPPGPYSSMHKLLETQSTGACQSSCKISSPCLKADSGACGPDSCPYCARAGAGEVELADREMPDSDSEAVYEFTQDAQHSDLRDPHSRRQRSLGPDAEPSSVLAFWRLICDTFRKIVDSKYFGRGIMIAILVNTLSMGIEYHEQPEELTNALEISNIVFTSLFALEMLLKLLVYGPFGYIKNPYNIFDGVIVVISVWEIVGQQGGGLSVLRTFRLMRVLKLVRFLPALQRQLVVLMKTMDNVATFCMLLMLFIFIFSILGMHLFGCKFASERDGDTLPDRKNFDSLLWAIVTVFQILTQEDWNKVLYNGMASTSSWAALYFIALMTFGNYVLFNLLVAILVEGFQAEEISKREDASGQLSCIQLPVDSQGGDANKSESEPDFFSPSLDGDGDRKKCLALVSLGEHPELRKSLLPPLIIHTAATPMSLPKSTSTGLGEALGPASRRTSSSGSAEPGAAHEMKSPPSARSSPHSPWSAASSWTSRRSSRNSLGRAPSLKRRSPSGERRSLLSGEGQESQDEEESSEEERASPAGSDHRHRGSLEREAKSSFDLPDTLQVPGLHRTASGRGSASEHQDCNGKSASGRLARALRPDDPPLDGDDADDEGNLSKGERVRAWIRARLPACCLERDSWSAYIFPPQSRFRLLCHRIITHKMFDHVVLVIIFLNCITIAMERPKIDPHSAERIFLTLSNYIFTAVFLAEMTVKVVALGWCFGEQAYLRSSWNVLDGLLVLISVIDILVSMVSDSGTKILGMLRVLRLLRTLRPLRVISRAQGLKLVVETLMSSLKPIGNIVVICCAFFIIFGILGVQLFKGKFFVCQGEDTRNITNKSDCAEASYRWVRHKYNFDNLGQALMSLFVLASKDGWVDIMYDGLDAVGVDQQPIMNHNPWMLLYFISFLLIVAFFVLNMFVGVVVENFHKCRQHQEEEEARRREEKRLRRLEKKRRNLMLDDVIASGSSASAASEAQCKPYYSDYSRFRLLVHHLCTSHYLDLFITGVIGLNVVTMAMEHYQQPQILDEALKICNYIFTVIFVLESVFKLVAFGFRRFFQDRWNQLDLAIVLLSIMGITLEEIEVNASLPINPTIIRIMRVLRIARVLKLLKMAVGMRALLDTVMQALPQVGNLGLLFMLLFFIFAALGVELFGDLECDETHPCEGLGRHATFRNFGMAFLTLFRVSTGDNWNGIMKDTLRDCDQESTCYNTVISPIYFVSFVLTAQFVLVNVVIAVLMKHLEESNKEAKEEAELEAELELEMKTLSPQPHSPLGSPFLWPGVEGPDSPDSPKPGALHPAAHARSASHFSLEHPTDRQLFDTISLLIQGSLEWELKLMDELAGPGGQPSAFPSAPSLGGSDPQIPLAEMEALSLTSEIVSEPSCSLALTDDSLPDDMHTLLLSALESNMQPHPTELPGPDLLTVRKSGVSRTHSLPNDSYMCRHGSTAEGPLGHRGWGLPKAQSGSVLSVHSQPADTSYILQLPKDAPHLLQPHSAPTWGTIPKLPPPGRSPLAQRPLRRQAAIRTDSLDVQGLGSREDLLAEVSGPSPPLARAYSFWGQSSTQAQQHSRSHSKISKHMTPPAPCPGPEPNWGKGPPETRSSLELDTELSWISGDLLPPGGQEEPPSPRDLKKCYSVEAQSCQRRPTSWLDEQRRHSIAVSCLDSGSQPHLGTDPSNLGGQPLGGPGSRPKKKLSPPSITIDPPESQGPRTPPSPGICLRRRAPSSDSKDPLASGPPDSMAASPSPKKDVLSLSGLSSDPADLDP
Description: as §1

[3] = molecular target: hKV4.3 (Homo sapiens, UniProt Q9UK17); assay: as above; format: cell-based; conditions: concentrations up to 30 μM
Chain of hKV4.3 (Q9UK17 whole entry): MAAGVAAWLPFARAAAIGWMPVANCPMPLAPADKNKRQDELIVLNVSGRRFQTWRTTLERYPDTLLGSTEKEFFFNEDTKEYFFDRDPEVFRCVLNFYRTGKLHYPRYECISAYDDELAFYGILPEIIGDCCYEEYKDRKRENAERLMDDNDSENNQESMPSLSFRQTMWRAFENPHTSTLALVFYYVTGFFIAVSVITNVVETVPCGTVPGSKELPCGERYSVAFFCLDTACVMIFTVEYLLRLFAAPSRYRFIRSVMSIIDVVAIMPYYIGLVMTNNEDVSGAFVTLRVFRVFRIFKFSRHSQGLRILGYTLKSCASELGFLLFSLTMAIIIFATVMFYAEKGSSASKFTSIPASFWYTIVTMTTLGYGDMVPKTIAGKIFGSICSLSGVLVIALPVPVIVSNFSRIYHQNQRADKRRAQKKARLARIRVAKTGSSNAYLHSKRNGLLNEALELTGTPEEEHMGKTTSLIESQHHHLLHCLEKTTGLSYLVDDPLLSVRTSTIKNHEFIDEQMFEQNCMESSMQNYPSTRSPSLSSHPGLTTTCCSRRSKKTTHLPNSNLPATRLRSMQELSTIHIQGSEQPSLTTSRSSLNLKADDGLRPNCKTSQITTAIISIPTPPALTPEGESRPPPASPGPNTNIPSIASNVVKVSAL
Description: as §1

[4] = molecular target: hNaV1.2 (Homo sapiens, UniProt Q99250); assay: as above; format: cell-based; conditions: concentrations up to 30 μM
Description: as §1

[5] = molecular target: T1, hERG (Homo sapiens, UniProt Q12809); assay: as above; format: cell-based; conditions: concentrations up to 30 μM
T1 construct: host or cells: CHO
T1 sequence (Q12809 whole entry): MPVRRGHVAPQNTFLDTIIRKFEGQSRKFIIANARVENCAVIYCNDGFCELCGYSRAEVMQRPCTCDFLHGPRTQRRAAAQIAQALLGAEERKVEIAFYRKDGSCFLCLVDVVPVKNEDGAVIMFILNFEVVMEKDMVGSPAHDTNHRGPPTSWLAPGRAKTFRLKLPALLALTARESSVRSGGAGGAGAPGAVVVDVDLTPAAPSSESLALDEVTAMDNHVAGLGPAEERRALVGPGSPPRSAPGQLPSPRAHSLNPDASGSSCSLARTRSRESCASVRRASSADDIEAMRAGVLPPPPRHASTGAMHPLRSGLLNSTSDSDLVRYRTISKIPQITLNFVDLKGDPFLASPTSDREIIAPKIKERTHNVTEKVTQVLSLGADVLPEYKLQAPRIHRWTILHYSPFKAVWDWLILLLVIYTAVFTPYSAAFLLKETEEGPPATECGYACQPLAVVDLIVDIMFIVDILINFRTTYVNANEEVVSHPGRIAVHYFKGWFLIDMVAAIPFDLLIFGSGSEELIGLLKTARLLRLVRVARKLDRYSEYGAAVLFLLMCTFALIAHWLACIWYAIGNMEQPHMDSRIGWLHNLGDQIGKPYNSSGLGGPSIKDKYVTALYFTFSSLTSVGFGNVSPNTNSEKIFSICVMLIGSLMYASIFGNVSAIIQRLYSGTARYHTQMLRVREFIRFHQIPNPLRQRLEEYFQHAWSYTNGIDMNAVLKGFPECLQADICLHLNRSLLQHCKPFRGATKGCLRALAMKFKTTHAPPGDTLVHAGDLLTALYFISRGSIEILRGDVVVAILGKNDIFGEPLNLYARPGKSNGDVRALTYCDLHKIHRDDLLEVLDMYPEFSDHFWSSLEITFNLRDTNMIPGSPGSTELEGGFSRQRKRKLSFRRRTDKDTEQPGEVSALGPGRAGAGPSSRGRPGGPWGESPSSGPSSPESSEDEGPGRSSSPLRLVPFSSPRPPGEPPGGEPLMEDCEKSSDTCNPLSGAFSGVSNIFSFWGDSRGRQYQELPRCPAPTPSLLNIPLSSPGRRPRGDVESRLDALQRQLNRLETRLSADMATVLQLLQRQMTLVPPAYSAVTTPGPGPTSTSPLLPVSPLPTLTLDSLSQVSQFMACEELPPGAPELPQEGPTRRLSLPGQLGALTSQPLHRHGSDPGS
Description: as §1

[6] = Solubility in 0.9% NaCl solution; format: physicochemical; conditions: sodium chloride solution (0.9%)
Description: (ii) Solubility in 0.9% NaCl solution. To obtain a crystal-like form of the compound, GE81112A was dissolved in water followed by freeze-drying. Afterwards, 510 μg GE81112A was transferred to a glass vial with a microinsert, and 50 μL NaCl (0.9%) was added.

[7] = test system: E. coli ATCC BAA-2469; conditions: NDM-1 strain
Description: (§2) MICs were determined by adapting the protocol from CLSI guidelines (Table 1; [15]). Briefly, from an overnight preculture, 49.2 μL of an inoculum of 5 × 10^5 CFU/mL in MH broth or DMEM was dispensed into 384-well plates, and 0.8 μL of compounds solubilized in dimethyl sulfoxide (DMSO) and serially diluted was added to the bacterial cultures. […] MICs were determined by measurement of the optical density at 600 nm (OD600). The experiments were performed in duplicate. Commercially available strains were obtained from the American Type Culture Collection (ATCC), the German Collection of Microorganisms and Cell Cultures (DSMZ), and the Biological Resource Center of Institut Pasteur (CRBIP).

[8] = test system: P. mirabilis DSM4479
Description: as §2

[9] = test system: C. freundii ATCC 8090
Description: as §2

[10] = test system: E. cloacae ATCC BAA-2468; conditions: NDM-1 strain
Description: as §2

[11] = test system: P. stuartii ATCC 29851
Description: as §2

[12] = test system: E. coli ATCC BAA-2471; conditions: NDM-1 strain
Description: as §2

[13] = test system: K. pneumoniae ATCC BAA-2342; conditions: KPC strain
Description: as §2

[14] = test system: K. pneumoniae ATCC BAA-2470; conditions: NDM-1 strain
Description: as §2

[15] = test system: E. coli MG1655
Description: as §2

[16] = test system: E. cloacae CIP 105879
Description: as §2

[17] = test system: E. coli DSM 46345
Description: as §2

[18] = test system: G-protein-coupled receptors, ion channels, NET and DAT panel; assay: Pharmacological off-target profiling: in vitro binding assays (CEREP); design: species or system human unless stated (rat); conditions: 0.01 mM
Excerpt: FIG 3 In vitro binding assays. Inhibitory effects of GE81112A were investigated for G-protein-coupled receptors for adenosine (A1 and A2A), […] (α1A, α2A, β1, and β2), cannabinoids (CB1 and CB2), dopamine (D1 and D2S), histamine (H1 and H2), acetylcholine (M1, M2, and M3), opioids (μ-MOP), and serotonin (5-HT1A, 5-HT2A, and 5-HT2B), the ion channels Gly (rat), nAChR (α4β2), nAChR (muscle type), PCP (rat), Cav1.2 (rat), Kv (rat), SKCa (rat), and GABACl (rat), NET (GenBank accession number P23975), and DAT (GenBank accession number Q01959).

In the case of `NC(=O)OC[C@@H](O)C[C@H](NC(=O)[C@H]1NCCC[C@H]1O)C(=O)N[C@@H](Cc1c[nH]cn1)C(=O)N[C@H](C(=O)O)[C@H](O)c1cnc(Cl)[nH]1` [GE81112A], the Ion channel inhibition [1] is reported as “did not inhibit”, the Ion channel inhibition [2] is reported as “did not inhibit” and the Ion channel inhibition [3] is reported as “did not inhibit”. The Ion channel inhibition [4] was “did not inhibit”, the Ion channel inhibition [5] was “did not inhibit” and the solubility [6] was over 500 µg/mL. It also gave an MIC ([7]; DMEM) of over 64 µg/mL, an MIC ([7]; MHII) of over 64 µg/mL and an MIC ([8]; DMEM) of 64 µg/mL (≈ 99.4 µM). The MIC ([8]; MHII) was over 64 µg/mL, the MIC ([9]; DMEM) was 32 µg/mL (≈ 49.7 µM) and the MIC ([9]; MHII) was over 64 µg/mL. It also gave an MIC ([10]; DMEM) of over 64 µg/mL, an MIC ([10]; MHII) of over 64 µg/mL and an MIC ([11]; DMEM) of over 64 µg/mL. For the same molecule, the MIC ([11]; MHII) was over 64 µg/mL, the MIC ([12]; DMEM) was 4 µg/mL (≈ 6.21 µM) and the MIC ([12]; MHII) was over 64 µg/mL. The MIC ([13]; DMEM) was over 64 µg/mL, the MIC ([13]; MHII) was over 64 µg/mL and the MIC ([14]; DMEM) was over 64 µg/mL. It also gave an MIC ([14]; MHII) of over 64 µg/mL, an MIC ([15]; DMEM) of 1 µg/mL (≈ 1.55 µM) and an MIC ([15]; MHII) of over 64 µg/mL. For the same molecule, the MIC ([16]; DMEM) was over 64 µg/mL, the MIC ([16]; MHII) was over 64 µg/mL and the MIC ([17]; DMEM) was over 64 µg/mL. For the same molecule, the MIC ([17]; MHII) was over 64 µg/mL and the “Off-target inhibitory effects, binding assays” value [18] was “no critical inhibiting effect”.

— paper PMC10269895 (Microbiology Spectrum, 2023)
